According to patent US5338726A, “Endothelin converting enzyme inhibitors” (Abbott Laboratories, priority 1992, dated 1994):
Non-standard residues stand in square brackets, D forms with d. Residues, ends and D or L forms follow the SMILES beside them. *: point of attachment. Sta = CC(C)C[C@H](N)[C@@H](O)CC(=O)O; Isovaleryl = CC(C)CC(=O)*

Legend:
[1] = tested on: solubilized endothelin converting enzyme (P3 from rat lung); test: Endothelin converting enzyme activity of solubilized enzyme with protease inhibitors; assay type: biochemical; details: at 40 mM; solubilized ECE (P3 from rat lung)
Experimental: (§1) Rat lung plasma membranes were prepared and assayed for endothelin converting enzyme activity as previously described (Biochem. Biophys. Res. Commun. 171 1291 (1990)).
The enzyme has an apparent molecular mass of 90 KD as estimated by SDS-PAGE or gel filtration and appears to be a single peptide protein. […] The enzyme may exist as isozymes with pIs at 6.2 and 6.3. […] The endothelin converting enzyme activity in active Mono Q fractions was inhibited by pepstatin A with an IC50 of 5 nM. The-endothelin converting enzyme activity of solubilized endothelin converting enzyme (P3 from rat lung) is not inhibited at 40 mM by TLCK, aprotinin, PMSF, E-64, bestatin, phosphoramidon or thiorphan. The endothelin converting enzyme activity of active Mono Q fractions was stimulated by divalent metal cations in the order of Mn^+2 ≥Zn^+2 >Ca^+2 >Mg^+2 ≥Ba^+2 =Co^+2.

[2] = target: endothelin converting enzyme (active Mono Q fractions of rat lung plasma membranes); test: Endothelin converting enzyme activity in active Mono Q fractions; assay type: biochemical; details: read-out: IC50 for inhibition of endothelin converting enzyme activity
Experimental: as §1
Rat lung plasma membranes (400 mg) were solubilized by stirring at 4° C. for 45 minutes in 50 ml of 20 mM Tris-HCl, pH 7.7 containing 2 mM dithiothreitol and 46 mM NOG (Buffer C). The unsolubilized materials were removed by centrifugation at 60,000×g for 30 minutes. Solubilized materials were injected onto a Mono Q HR 10/10 column (Pharmacia) and eluted with concentration gradients of 0-1M NaCl in 240 ml of Buffer C at 4 ml/minute. (Endothelin converting enzyme active fractions were eluted from 0.07 to 0.14 M NaCl). Absorbance at 280 nm was monitored by a LKB 2150 UVICORD SD monitor. Fractions were analyzed for endothelin converting enzyme activity and by SDS-PAGE. Protein content was determined by the Bio-Rad Protein Assay kit.
The enzyme has an apparent molecular mass of 90 KD as estimated by SDS-PAGE or gel filtration and appears to be a single peptide protein. […] The enzyme may exist as isozymes with pIs at 6.2 and 6.3. […] The endothelin converting enzyme activity in active Mono Q fractions was inhibited by pepstatin A with an IC50 of 5 nM. […]

Molecule | inhibition of endothelin converting enzyme activity [1] | IC50 [2] [nM]
O=S(=O)(F)Cc1ccccc1 [PMSF] | not inhibited | 
Cc1ccc(S(=O)(=O)NC(CCCCN)C(=O)CCl)cc1 (centres unmarked) [TLCK] | not inhibited | 
CC(C)CC(=O)N[C@H](C(=O)N[C@H](C(=O)N[C@@H](CC(C)C)[C@@H](O)CC(=O)N[C@@H](C)C(=O)N[C@@H](CC(C)C)[C@@H](O)CC(=O)O)C(C)C)C(C)C [pepstatin A] (Isovaleryl-VV[Sta]A[Sta]-OH) |  | 5
O=C(O)CNC(=O)C(CS)Cc1ccccc1 (centres unmarked) [thiorphan] | not inhibited | 

Results, then the molecule that gave them:

inhibition of endothelin converting enzyme activity [1] | IC50 [2] [nM] | Molecule
not inhibited |  | CC(C)C[C@H](NC(=O)[C@H]1O[C@@H]1C(=O)O)C(=O)NCCCCN=C(N)N [Example E-64, E-64]
not inhibited |  | CC(C)C[C@H](NC(=O)[C@@H](O)[C@H](N)Cc1ccccc1)C(=O)O [bestatin]
not inhibited |  | CC(C)C[C@H](NP(=O)(O)O[C@@H]1O[C@@H](C)[C@H](O)[C@@H](O)[C@H]1O)C(=O)N[C@@H](Cc1c[nH]c2ccccc12)C(=O)O [phosphoramidon]
not inhibited |  | aprotinin
